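Five concentrations, 48 hours, 96-well plates. GI50 is the concentration that inhibits growth by half.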 Calls of active or inactive are those of the source. No stated cut-off is given here; in the data, active = GI50 up to about 1.1 µM and inactive = higher.
Experiments:
Test in all cases: NCI tumour cell line growth inhibition, 48 h
[1] = tested on: TK-10
[2] = tested on: DMS-114
[3] = tested on: UACC-257
[4] = tested on: SK-MEL-28
[5] = tested on: CCRF-CEM
[6] = tested on: Malme-3M
[7] = tested on: ACHN
[8] = tested on: SN12C
[9] = tested on: SF-539
[10] = tested on: A498
[11] = tested on: KM12
[12] = tested on: A549
[13] = tested on: SK-OV-3
[14] = tested on: HCT-15
[15] = tested on: SNB-75
[16] = tested on: UACC-62
[17] = tested on: MDA-MB-231
[18] = tested on: Hs-578T
[19] = tested on: NCI/ADR-RES

Structure (SMILES)	GI50 [1]	GI50 [2]	GI50 [3]	GI50 [4]	GI50 [5]	GI50 [6]	GI50 [7]	GI50 [8]	GI50 [9]	GI50 [10]	GI50 [11]	GI50 [12]	GI50 [13]	GI50 [14] [µM]	GI50 [15]	GI50 [16]	GI50 [17]	GI50 [18]	GI50 [19]
O=[N+]([O-])c1cccnc1S(=O)(=O)c1ccccc1	10 µM (inactive)	3.18 µM (inactive)	17.4 µM (inactive)	20 µM (inactive)	4.21 µM (inactive)	11.1 µM (inactive)	4.83 µM (inactive)	9.2 µM (inactive)	11.3 µM (inactive)	22.1 µM (inactive)	19.6 µM (inactive)	21.8 µM (inactive)	20.5 µM (inactive)	7.55	19.9 µM (inactive)	11.6 µM (inactive)			
CC(C)/C=C1\CCC(CN(C)C)C1=O (centres undefined)	2.09 µM (inactive)	3.19 µM (inactive)	4.63 µM (inactive)	2.21 µM (inactive)	1.63 µM (inactive)	1.04 µM (active)	5.82 µM (inactive)	2.21 µM (inactive)	7.29 µM (inactive)	6.87 µM (inactive)	1.22 µM (inactive)	8.57 µM (inactive)	18.3 µM (inactive)	2.13	3.48 µM (inactive)	16.8 µM (inactive)	1.42 µM (inactive)	1.86 µM (inactive)	3 µM (inactive)
OC1=CN=C(c2ccccc2)Oc2ccccc21	> 100 µM (inactive)	> 100 µM (inactive)	> 100 µM (inactive)	> 100 µM (inactive)	> 100 µM (inactive)	> 100 µM (inactive)	> 100 µM (inactive)	> 100 µM (inactive)	19 µM (inactive)	> 100 µM (inactive)	50.9 µM (inactive)	> 100 µM (inactive)	> 100 µM (inactive)	> 100	30.7 µM (inactive)	> 100 µM (inactive)			
COC(=O)N/N=C(\C)C(CN1CCCCC1)C(C1=C(O)c2ccccc2OC1)c1ccccc1 (centres undefined)	> 100 µM (inactive)	> 100 µM (inactive)	> 100 µM (inactive)	> 100 µM (inactive)	> 100 µM (inactive)	> 100 µM (inactive)	> 100 µM (inactive)	> 100 µM (inactive)	> 100 µM (inactive)	> 100 µM (inactive)	> 100 µM (inactive)	> 100 µM (inactive)	> 100 µM (inactive)	> 100	95.7 µM (inactive)	86.3 µM (inactive)			
CC(C)(C)c1ccc2c(c1)C(O)(c1ccccc1)c1cc(C(C)(C)C)ccc1C2(O)C(F)(F)F (centres undefined)	3.98 µM (inactive)	2.04 µM (inactive)	2.33 µM (inactive)	2.09 µM (inactive)	2.13 µM (inactive)	2.51 µM (inactive)	2.14 µM (inactive)	1.76 µM (inactive)	1.74 µM (inactive)	1.83 µM (inactive)	1.93 µM (inactive)	1.88 µM (inactive)	3.24 µM (inactive)	1.39	2.13 µM (inactive)	1.63 µM (inactive)			
O=C(CC1=Nc2nnc(CCCCCCCc3nnc4n3C(=O)C(CC(=O)c3ccccc3)=N4)n2C1=O)c1ccccc1	> 100 µM (inactive)	> 100 µM (inactive)	> 100 µM (inactive)	> 100 µM (inactive)	> 100 µM (inactive)	> 100 µM (inactive)	> 100 µM (inactive)	> 100 µM (inactive)	> 100 µM (inactive)	> 100 µM (inactive)	> 100 µM (inactive)	> 100 µM (inactive)	> 100 µM (inactive)	> 100	> 100 µM (inactive)	> 100 µM (inactive)			
COC(=O)C(C)NP(=O)(N1CC1)N1CC1 (centres undefined)	> 100 µM (inactive)	66.4 µM (inactive)	> 100 µM (inactive)	> 100 µM (inactive)	47.6 µM (inactive)	> 100 µM (inactive)	27.9 µM (inactive)	73.6 µM (inactive)	> 100 µM (inactive)	> 100 µM (inactive)	> 100 µM (inactive)	> 100 µM (inactive)	> 100 µM (inactive)	> 100	> 100 µM (inactive)	61.8 µM (inactive)			
Cc1ccc(C)c(NC(=O)CCC(=O)CC(=O)C(C)(C)C)c1	> 100 µM (inactive)	> 100 µM (inactive)	> 100 µM (inactive)	> 100 µM (inactive)	> 100 µM (inactive)	> 100 µM (inactive)	> 100 µM (inactive)	> 100 µM (inactive)	> 100 µM (inactive)	> 100 µM (inactive)	> 100 µM (inactive)	> 100 µM (inactive)	> 100 µM (inactive)	> 100	> 100 µM (inactive)	> 100 µM (inactive)			
O=S(=O)(C1=CC(S(=O)(=O)c2ccccc2)CN(Cc2ccccc2)C1c1cccc2ccccc12)c1ccccc1 (centres undefined)	> 69 µM (inactive)	> 69 µM (inactive)	> 69 µM (inactive)	> 69 µM (inactive)	> 69 µM (inactive)	> 69 µM (inactive)	> 69 µM (inactive)	> 69 µM (inactive)	> 69 µM (inactive)	> 69 µM (inactive)	> 69 µM (inactive)	> 69 µM (inactive)	> 69 µM (inactive)	> 69	> 69 µM (inactive)	> 69 µM (inactive)			
O=C1[C@@H]2C(c3ccncc3)=NO[C@@H]2C(=O)N1c1ccc(Cc2ccc(N3C(=O)[C@H]4C(c5ccncc5)=NO[C@H]4C3=O)cc2)cc1	> 100 µM (inactive)	> 100 µM (inactive)	> 100 µM (inactive)	> 100 µM (inactive)	> 100 µM (inactive)	99.1 µM (inactive)	> 100 µM (inactive)	> 100 µM (inactive)	> 100 µM (inactive)	> 100 µM (inactive)	> 100 µM (inactive)	> 100 µM (inactive)	> 100 µM (inactive)	> 100	> 100 µM (inactive)	> 100 µM (inactive)			
CSc1nc(O)c2cn(Cc3ccccc3)nc2n1	> 61.7 µM (inactive)	> 100 µM (inactive)	> 100 µM (inactive)	> 100 µM (inactive)	44 µM (inactive)	> 100 µM (inactive)	> 76.4 µM (inactive)	> 100 µM (inactive)	> 100 µM (inactive)	> 100 µM (inactive)	> 100 µM (inactive)	> 100 µM (inactive)	> 100 µM (inactive)	> 75.3	> 86.1 µM (inactive)	> 100 µM (inactive)			
CCOC(=O)c1nc(C)oc1C(F)(F)F	> 100 µM (inactive)	> 100 µM (inactive)	> 100 µM (inactive)	> 100 µM (inactive)	> 100 µM (inactive)	> 100 µM (inactive)	> 100 µM (inactive)	> 100 µM (inactive)	> 100 µM (inactive)	> 100 µM (inactive)	> 100 µM (inactive)	> 100 µM (inactive)	> 100 µM (inactive)	> 100	> 100 µM (inactive)	> 100 µM (inactive)			
OC(CCl)CN1CC[N+]2(CC1)CC[N+]1(CCN(CC(O)CCl)CC1)CC2 (centres undefined) [PROSPIDIUM CHLORIDE]	> 50 µM (inactive)	41.6 µM (inactive)		> 50 µM (inactive)	> 50 µM (inactive)	> 50 µM (inactive)	> 50 µM (inactive)	> 50 µM (inactive)	> 50 µM (inactive)	> 50 µM (inactive)	> 50 µM (inactive)	> 50 µM (inactive)	> 50 µM (inactive)	> 50	> 50 µM (inactive)				

— ChEMBL document CHEMBL1201862, “PubChem BioAssay data set” (2004)
